# According to patent publication US8852632B2, “Pharmaceutical formulation containing a release rate controlling composition” (Merck Sharp & Dohme Corp., priority 2004, dated 2014):
# Assay: Hygroscopicity (vapor sorption analysis)
# Assay type: physicochemical
# Method: Hygroscopicity data was obtained on a VTI Symmetrical Vapor Sorption Analyzer Model SGA-1. Data was collected at room temperature from 5-95% relative humidity and back, 5% relative humidity change per step. Equilibrium conditions were 0.01 weight percent change in 5 minutes with a maximum equilibration time of 180 minutes. […] When equilibrated back down to 5% RH, the material returned back to approximately its dry weight.
compound,measurement,setting,value
Cc1nnc(C(=O)NC(C)(C)c2nc(C(=O)NCc3ccc(F)cc3)c(O)c(=O)n2C)o1,XRPD analysis after the hygroscopicity experiment (phase stability),after cycling 5-95% relative humidity and back,had not changed phases
same,weight increase (hygroscopicity),equilibrated at 95% RH at 25° C.,1.8%
